# Laboratory results from patent US20050106236A1, “5-Ht4partial agonist pharmaceutical compositions” (priority 2001, published 2005).
# Experiment: Solubility of tegaserod in water
# Type: physicochemical
# Conditions: at 25° C. in water
# Method: A preferred agent is tegaserod, a 5-HT4 partial agonist of formula [drawing 1] or pharmaceutically acceptable salt form thereof, e.g. the hydrogen maleate (hereinafter “hml”) salt. Tegaserod has a solubility of about 0.02% at 25° C. in water and is acid sensitive.
smiles,measurement,value
"CCCCCNC(=N)NN=Cc1c[nH]c2ccc(OC)cc12 [Tegaserod, 3-(5-methoxy-1H-Indol-3-yl-methylene)-N-pentylcarbazimidamide]",solubility,about 0.02%
